In patent US5258382A, “Tetrahydropyrrolo[1,2-a]pyrazine-4-spiro-3'-pyrrolidine derivatives, processes for the preparation thereof and pharmaceutical compositions containing the same” (Dainippon Pharmaceutical Co., Ltd., priority 1991, dated 1993):
Like-named read-outs stand apart in the source and are kept apart here.

Key:
sorbitol accumulation = experiment: Inhibitory activity on sorbitol accumulation (in vivo), sciatic nerve of streptozotocin-diabetic rats; set-up: species or system Male Wistar rats; conditions: for Inhibition (%) of sorbitol accumulation: oral, once a day for 5 days, sciatic nerve, 4 hours after final administration; for inhibitory activity on sorbitol accumulation relative to (±)-sorbinil: compared with (±)-sorbinil; for duration of effect: rat, in vivo
Description: Male Wistar rats (200-250 g) were used in groups of 4 animals each. The rats were made diabetic by single i.v. injection of streptozotocin (40 mg/kg) freshly dissolved in physiological saline.
From one week after the induction of diabetes, the rats were orally given test compounds, suspended in 0.5% tragacanth solution, once a day for 5 days. […] The activity of test compounds was expressed as the inhibition percent of sorbitol accumulation ar given doses, which was calculated according to the following equation.
Inhibition %=(S-T)/(S-N)×100
S: Sorbitol content in sciatic nerve from diabetic control
T: Sorbitol content in sciatic nerve from diabetic rats given test compounds
N: Sorbitol content in sciatic nerve from normal rats.

Aldose reductase = biological target: T1, Aldose reductase (Sus scrofa, UniProt P80276); experiment: Aldose reductase inhibitory activity (in vitro); format: biochemical, porcine
T1 construct: Lenses isolated from porcine eyes (Tokyo Sibaura Zouki Co., Ltd., Japan) were homogenized; tissue Tokyo Sibaura Zouki Co., Ltd., Japan (porcine eyes); host or cells: porcine lens
Description: Lenses isolated from porcine eyes (Tokyo Sibaura Zouki Co., Ltd., Japan) were homogenized with 5 mM phosphate buffer (pH 7.4) containing 2 mM mercaptoethanol, and centrifuged at 10,200 g for 10 minutes. The supernatant was sequentially precipitated with ammonium sulfate at 30%, 40% and 60% saturation. The precipitate at 60% saturation was dissolved in a homogenizing buffer and used as a crude enzyme preparation. The unit of enzyme activity was defined as the amount of enzyme which oxidized 1 μmoles of NADPH/minute under the following assay condition.
The standard reaction mixture was composed of 100 mM phosphate buffer (pH 6.5), 0.2 mM NADPH, 1.5 mM D,L-glyceraldehyde, 0.4M lithium sulfate, enzyme solution (7.0 mU/ml) and test compounds at various concentrations. The reaction mixture was incubated at 37° C., and the decrease in absorbance at 340 nm was monitored by a spectrophotometer (Hitachi 150-20). The enzyme activity was calculated based upon the rate of decrease in the absorbance over a period of 1 minute from 1 minute after the onset of the enzyme reaction.

Acute toxicity, oral = conditions: 1 g/kg oral, suspended in 0.5% tragacanth; observed for 7 days
Text: Male ddY mice (18-25 g) were used in groups of 5 animals each. The compounds of Examples 1 (21) and 22, suspended in 0.5% tragacanth solution, were orally administered at a dose of 1 g/kg to the animals.

[1] = crude enzyme from porcine lenses, D,L-glyceraldehyde 1.5 mM, NADPH 0.2 mM, pH 6.5, 37° C., read-out: IC50 (aldose reductase inhibitory activity)

Compound	Inhibition (%) of sorbitol accumulation (sorbitol accumulation; 30 mg/kg/day) [%]	inhibitory activity on sorbitol accumulation relative to (±)-sorbinil (sorbitol accumulation)	IC50 (Aldose reductase; [1]) [nM]	other results
O=C1NC(=O)C2(CCOc3ccc(F)cc32)N1 (racemic) [(±)-Sorbinil, 6-fluoro-2,3-dihydrospiro[4H-1-benzopyran-4,4'-imidazolidine]-2',5'-dione, reference compound]	106.9	–	–	Inhibition (%) of sorbitol accumulation (sorbitol accumulation; 3.0 mg/kg/day): 60.7%
O=C1CC2(C(=O)N1)C(=O)N(Cc1ccc(Br)cc1F)C(=O)c1cccn12 (single isomer, unassigned) [Example 22, an enantiomer of 2-(4-bromo-2-fluorobenzyl)-[1,2,3,4-tetrahydropyrrolo[1,2-a]pyrazine-4-spiro-3'-pyrrolidine]-1,2',3,5'-tetrone]	–	equipotent to or more potent than (±)-sorbinil	–	IC50 (Aldose reductase): 39 nM; Inhibition (%) of sorbitol accumulation (sorbitol accumulation; 0.3 mg/kg/day): 77.6%; Inhibition (%) of sorbitol accumulation (sorbitol accumulation; 1.0 mg/kg/day): 107.3%; duration of effect (sorbitol accumulation): long-lasting; mortality (Acute toxicity, oral): None of the mice died during this period
CC(=C\c1ccccc1)/C=C1/SC(=S)N(CC(=O)O)C1=O [Epalrestat, (E,E)-5-(2-methyl-3-phenyl-2-propenylidene) 4-oxo-2-thioxo-3-thiazolidineacetic acid, reference compound]	–	–	–	IC50 (Aldose reductase): 73 nM; Inhibition (%) of sorbitol accumulation (sorbitol accumulation; 200 mg/kg/day): 5.7%
O=C1CC2(C(=O)N1)C(=O)N(Cc1ccc(Br)cc1F)C(=O)c1cccn12 (centres unmarked) [Example 1, 2-(4-bromo-2-fluorobenzyl)-[1,2,3,4-tetrahydropyrrolo[1,2-a]pyrazine-4-spiro-3'-pyrrolidine]-1,2',3,5'-tetrone]	114.6	equipotent to or more potent than (±)-sorbinil	–	IC50 (Aldose reductase): 50 nM; Inhibition (%) of sorbitol accumulation (sorbitol accumulation; 1.0 mg/kg/day): 104.7%; duration of effect (sorbitol accumulation): long-lasting; mortality (Acute toxicity, oral): None of the mice died during this period
O=C1CC2(C(=O)N1)C(=O)N(Cc1ccccc1Cl)C(=O)c1cccn12 (centres unmarked) [Example 2, 2-(2-chlorobenzyl)-[1,2,3,4-tetrahydropyrrolo[1,2-a]pyrazine-4-spiro-3'-pyrrolidine]-1,2',3,5'-tetrone]	97.1	–	33	Inhibition (%) of sorbitol accumulation (sorbitol accumulation; 3.0 mg/kg/day): 30.5%
O=C1CC2(C(=O)N1)C(=O)N(Cc1ccccc1)C(=O)c1cccn12 (centres unmarked) [Example 3]	69.1	–	99	–
O=C1CC2(C(=O)N1)C(=O)N(Cc1ccccc1F)C(=O)c1cccn12 (centres unmarked) [Example 4]	–	equipotent to or more potent than (±)-sorbinil	61	Inhibition (%) of sorbitol accumulation (sorbitol accumulation; 1.0 mg/kg/day): 47.2%; Inhibition (%) of sorbitol accumulation (sorbitol accumulation; 10 mg/kg/day): 73.5%
O=C1CC2(C(=O)N1)C(=O)N(Cc1cccc(Cl)c1)C(=O)c1cccn12 (centres unmarked) [Example 5]	99.4	equipotent to or more potent than (±)-sorbinil	31	Inhibition (%) of sorbitol accumulation (sorbitol accumulation; 3.0 mg/kg/day): 44.2%
O=C1CC2(C(=O)N1)C(=O)N(Cc1ccc(F)cc1)C(=O)c1cccn12 (centres unmarked) [Example 6]	55.8	–	120	–
O=C1CC2(C(=O)N1)C(=O)N(Cc1ccc(Cl)cc1)C(=O)c1cccn12 (centres unmarked) [Example 7]	104.6	equipotent to or more potent than (±)-sorbinil	33	Inhibition (%) of sorbitol accumulation (sorbitol accumulation; 3.0 mg/kg/day): 69.7%
O=C1CC2(C(=O)N1)C(=O)N(Cc1ccc(Br)cc1)C(=O)c1cccn12 (centres unmarked) [Example 8, 2-(4-bromobenzyl)-[1,2,3,4-tetrahydropyrrolo[1,2-a]pyrazine-4-spiro-3'-pyrrolidine]-1,2',3,5'-tetrone]	–	equipotent to or more potent than (±)-sorbinil	47	Inhibition (%) of sorbitol accumulation (sorbitol accumulation; 3.0 mg/kg/day): 104.7%
O=C1CC2(C(=O)N1)C(=O)N(Cc1ccc(C(F)(F)F)cc1)C(=O)c1cccn12 (centres unmarked) [Example 9]	–	–	80	–
O=C1CC2(C(=O)N1)C(=O)N(Cc1ccc(F)cc1F)C(=O)c1cccn12 (centres unmarked) [Example 10]	98.0	–	72	Inhibition (%) of sorbitol accumulation (sorbitol accumulation; 3.0 mg/kg/day): 33.3%
Cc1ccc(CN2C(=O)c3cccn3C3(CC(=O)NC3=O)C2=O)cc1 (centres unmarked) [Example 11]	65.8	–	52	–
COc1ccc(CN2C(=O)c3cccn3C3(CC(=O)NC3=O)C2=O)cc1 (centres unmarked) [Example 12]	–	–	46	–
COc1ccc(CN2C(=O)c3cccn3C3(CC(=O)NC3=O)C2=O)cc1OC (centres unmarked) [Example 13]	–	–	110	–
O=C1CC2(C(=O)N1)C(=O)N(Cc1ccc([N+](=O)[O-])cc1)C(=O)c1cccn12 (centres unmarked) [Example 15]	102.2	–	110	Inhibition (%) of sorbitol accumulation (sorbitol accumulation; 3.0 mg/kg/day): 7.4%
O=C1CC2(C(=O)N1)C(=O)N(Cc1ccc(Cl)cc1F)C(=O)c1cccn12 (centres unmarked) [Example 16, 2-(4 chloro 2-fluorobenzyl)-[1,2,3,4-tetrahydropyrrolo[1,2-a]pyrazine-4-spiro-3'-pyrrolidine]-1,2',3,5'-tetrone]	–	equipotent to or more potent than (±)-sorbinil	41	Inhibition (%) of sorbitol accumulation (sorbitol accumulation; 1.0 mg/kg/day): 61.0%
O=C1CC2(C(=O)N1)C(=O)N(Cc1ccccc1Br)C(=O)c1cccn12 (centres unmarked) [Example 17]	–	–	52	–
O=C1CC2(C(=O)N1)C(=O)N(Cc1cccc(Br)c1)C(=O)c1cccn12 (centres unmarked) [Example 18]	–	–	37	–
O=C1CC2(C(=O)N1)C(=O)N(Cc1ccc(Br)cc1F)C(=O)c1cc(Cl)cn12 (centres unmarked) [Example 19, 2-(4-bromo-2-fluorobenzyl)-7-chloro-[1,2,3,4-tetrahydropyrrolo[1,2-a]pyrazine-4-spiro-3'-pyrrolidine]-1,2',3,5'-tetrone]	–	–	50	–
O=C1CC2(C(=O)N1)C(=O)N(Cc1ccc(Br)cc1F)C(=O)c1cc(Br)cn12 (centres unmarked) [Example 20, 7-bromo-2-(4-bromo-2-fluorobenzyl)-[1,2,3,4-tetrahydropyrrolo[1,2-a]pyrazine-4-spiro-3'-pyrrolidine]-1,2',3,5'-tetrone]	–	–	100	–
O=C1CC2(C(=O)N1)C(=O)N(Cc1ccc(Cl)c(Cl)c1)C(=O)c1cccn12 (centres unmarked) [Example 24, 2-(3,4-dichlorobenzyl)-[1,2,3,4-tetrahydropyrrolo[1,2-a]pyrazine-4-spiro-3'-pyrrolidine]-1,2',3,5'-tetrone]	111.8	equipotent to or more potent than (±)-sorbinil	23	Inhibition (%) of sorbitol accumulation (sorbitol accumulation; 1.0 mg/kg/day): 70.9%
O=C1CC2(C(=O)N1)C(=O)N(Cc1ccc(Br)cc1F)C(=O)c1ccc(Br)n12 (centres unmarked) [Example 26, 6-bromo-2-(4-bromo-2-fluorobenzyl)-[1,2,3,4-tetrahydropyrrolo[1,2-a]pyrazine-4-spiro-3'-pyrrolidine]-1,2',3,5'-tetrone]	–	–	40	–
O=C1CC2(C(=O)N1)C(=O)N(Cc1ccc(Br)cc1F)C(=O)c1ccc(Cl)n12 (centres unmarked) [Example 27, 2-(4 bromo-2-fluorobenzyl)-6-chloro-[1,2,3,4-tetrahydropyrrolo[1,2-a]pyrazine-4-spiro-3'-pyrrolidine]-1,2',3,5-tetrone]	–	–	35	–
